Positions of bridges follow the written chain, without caps; N, C: chain ends. Non-standard residues stand in square brackets, D forms with d. Residues, ends and D or L forms follow the SMILES beside them. pS = N[C@@H](COP(=O)(O)O)C(=O)O
How the values were obtained:
[1] = tested on: Potato acid phosphatase (PoAP); assay: Acid phosphatase reaction, potato acid phosphatase; format: in vitro ADME; conditions: Potato acid phosphatase pH 5, 90 minutes at 37° C.
Protocol: (§1) For the alkaline phosphatase reactions, peptide stocks were prepared at 1 mg/mL in 0.1 M Tris-HCl pH 8, which were stored at −20° C. until assays were conducted. For the acid phosphatase reactions, peptide stocks were prepared at 1 mg/mL in 50 mM sodium phosphate pH 6, which was stored at −20° C. until assays were conducted.
(§2) Potato acid phosphatase (PoAP) was obtained from Sigma, St. Louis, Miss. Cat #P1146 and human prostate acid phosphatase (HuPrAP) was obtained from MP Biochemicals, Solon, Ohio. Cat # 153872. The acid phosphatases were dissolved to provide a solution containing 0.5 units AP/μL using 50 mM sodium acetate pH 5, 0.2 mM MgCl2. The acid phosphatase reactions were assembled in 20 μL quantities containing: • 2 μL 10× acid phosphatase buffer (500 mM sodium acetate pH 5, 2 mM MgCl2) • 2 μL peptide stock (1 mg/mL) • 12 μL H2O • 4 μL acid phosphatase (0.5 or 2 units)
(§3) The reaction solutions were mixed gently and incubated for 90 minutes at 37° C. The reaction solutions were stored at −20° C. for later analysis. For analysis, 7.5 μL acid phosphatase reactions were diluted to 50 μL with 0.1% formic acid in water to a final concentration of 10 μM. The control reactions for enzyme activity were assembled and diluted to 10 mM p-nitrophenylphosphate in place of peptide. After incubation, the reactions were diluted with 0.1 mL of 100 mM borate buffer pH 9 and read at the absorbance of 405 nm to monitor p-nitrophenol appearance.

[2] = tested on: potato acid phosphatase (PoAP); assay: Acid phosphatase reaction, potato acid phosphatase; format: in vitro ADME; conditions: potato acid phosphatase (PoAP); Potato acid phosphatase pH 5, 90 minutes at 37° C.
Protocol: as §1, §2, §3

[3] = target: T1, Calf intestinal alkaline phosphatase (CIP) (Bos taurus, UniProt P19111); assay: Alkaline phosphatase reaction (dephosphorylation of peptide substrates, LCMS); format: in vitro ADME; conditions: Alkaline phosphatase pH 8, 90 minutes at 37° C.
T1 construct: purchased New England BioLabs, Ipswich, Mass; M0290S
T1 sequence (P19111 20-506): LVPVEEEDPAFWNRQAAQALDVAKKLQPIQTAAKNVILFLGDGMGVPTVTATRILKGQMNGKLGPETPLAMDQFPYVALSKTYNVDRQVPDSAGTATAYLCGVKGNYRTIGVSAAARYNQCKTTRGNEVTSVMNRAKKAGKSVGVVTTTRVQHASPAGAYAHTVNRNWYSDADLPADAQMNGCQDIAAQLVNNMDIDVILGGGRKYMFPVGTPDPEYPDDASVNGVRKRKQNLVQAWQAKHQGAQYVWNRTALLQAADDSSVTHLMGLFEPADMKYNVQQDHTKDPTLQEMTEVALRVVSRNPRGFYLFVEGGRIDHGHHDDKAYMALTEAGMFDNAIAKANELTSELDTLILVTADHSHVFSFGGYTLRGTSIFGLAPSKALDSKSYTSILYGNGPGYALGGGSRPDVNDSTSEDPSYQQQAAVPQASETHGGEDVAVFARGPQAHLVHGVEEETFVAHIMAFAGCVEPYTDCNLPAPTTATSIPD
Protocol: as §1
(§4) Calf intestinal alkaline phosphatase (CIP) was obtained from New England BioLabs, Ipswich, Mass. Cat # M0290S. The CIP reaction solution was prepared by dilution with buffer (50 mM KCl, 10 mM Tris-HCl pH 8, 1 mM MgCl2, 50% glycerol) to 0.5 units/μL. The alkaline phosphatase reaction solutions were assembled in 20 μL quantities containing: • 2 μL 10× CIP buffer (1M NaCl, 500 mM Tris-HCl pH 8, 100 mM MgCl2) • 2 μL peptide stock (1 mg/mL) • 12 μL H2O • 4 μL alkaline phosphatase (0, 0.5 or 2 units)
(§5) The reaction solutions were mixed gently and incubated for 90 minutes at 37° C. These reaction solutions were stored at −20° C. until analysis. For analysis, the reaction solutions were diluted from 7.5 μL of CIP treated peptide to 50 μL with 0.1% formic acid in water to a final concentration of 10 μM.
(§6) Control reactions were assembled for enzyme activity containing 10 mM p-nitrophenylphosphate in place of peptide. After incubation, the reactions were diluted with 0.1 mL of 100 mM borate buffer pH 9 and read at the absorbance of 405 nm to monitor p-nitrophenol appearance.

[4] = tested on: T2, calf intestinal alkaline phosphatase (CIP); assay: as above; format: in vitro ADME; conditions: calf intestinal alkaline phosphatase (CIP); Alkaline phosphatase pH 8, 90 minutes at 37° C.
T2 construct: purchased New England BioLabs, Ipswich, Mass; M0290S
Protocol: as §1, §4, §5, §6

[5] = target: T3, human prostate acid phosphatase (HuPrAP) (Homo sapiens, UniProt P15309); assay: Acid phosphatase reaction, human prostate acid phosphatase; format: in vitro ADME; conditions: Human prostatic acid phosphatase pH 5, 90 minutes at 37° C.
T3 construct: purchased MP Biochemicals, Solon, Ohio 153872
T3 sequence (P15309 33-386): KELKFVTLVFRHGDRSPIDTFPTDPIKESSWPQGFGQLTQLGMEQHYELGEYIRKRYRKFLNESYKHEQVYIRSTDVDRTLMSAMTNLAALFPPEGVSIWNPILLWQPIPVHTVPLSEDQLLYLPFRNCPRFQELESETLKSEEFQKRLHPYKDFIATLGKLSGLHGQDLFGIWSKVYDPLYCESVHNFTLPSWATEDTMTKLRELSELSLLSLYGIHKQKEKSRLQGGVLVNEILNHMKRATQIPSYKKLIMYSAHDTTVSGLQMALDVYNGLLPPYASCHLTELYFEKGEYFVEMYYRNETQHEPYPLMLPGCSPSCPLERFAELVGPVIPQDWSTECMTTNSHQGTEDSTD
Protocol: as §1, §2, §3

[6] = tested on: ligated rat duodenal loops; assay: Fluid secretion in rat intestinal loops; format: in vivo, rats
Protocol: The effect of GC-C agonist peptides on secretion were studied by injecting GC-C agonist peptides described herein directly into an isolated loop in wild-type rats.
Loops were isolated by surgically ligating three loops in the small intestine of the rat. The methodology for ligated loop formation was similar to that described in (London et al., 1997, Am J Physiol, p. G93-105). The loops were roughly centered and at lengths of 1-3 cm. The loops were injected with 200 μl of either peptide/GC-C agonist (0.1-5 μg) or vehicle (20 mM Tris, pH 7.5 or Krebs Ringer, 10 mM Glucose, HEPES buffer (KRGH)). Following a recovery time of up to 90 minutes the loops were excised. Weights were recorded for each loop before and after removal of the fluid contained therein. The length of each loop was also recorded. A weight to length ratio (W/L) for each loop was calculated to determine the effects of the GC-C agonist peptide described herein on secretion. Loop fluid volume was also determined.
Data showing increases in fluid secretion, pH increase and bicarbonate secretion in ligated duodenal loops in rats are shown in FIG. 2 and Table 8. […] Table 8 provides the results in ligated rat duodenal loops using 2.5 μg of peptide per loop.

female CD-1 mice = assay: Gastrointestinal transit in mice (charcoal meal); format: in vivo; conditions: oral gavage, % distance travelled by charcoal front
Protocol: The purpose of the assay was to test the effect of the guanylate cyclase C agonist peptides on in vivo gastrointestinal transit in mice.
For the assay, female CD-1 mice (n=10 per group) weighing 25-30 g were fasted overnight and given access to water ad libitum. Activated charcoal (20 g; 100 mesh; Sigma cat# 242276) was suspended in 200 mL gum arabic (100 mg/mL), and stirred for at least one hour. Test peptides were prepared in a 20 mM Tris pH 6.9 vehicle.
Test peptide and vehicle were administered in 200 μL doses by oral gavage. Seven minutes after dosing the test peptides, 200 μL of the charcoal/gum arabic suspension was dosed by oral gavage. […] The total length of the small intestine was measured from the pyloric junction to the ileocaecal junction. The distance travelled by the charcoal was measured from the pyloric junction to the charcoal front. The Distance Travelled (%) was determined as (distance travelled by charcoal/total length of the small intestine)×100. Data were entered into the GraphPad Prism software program and analyzed by ANOVA using a Bonferroni multiple comparison test post-hoc. Plots of data and ED50 were also determined using the GraphPad Prism software package.
The dose-dependent effects of acute doses of Peptide 4, Peptide 1, Peptide 2, the dephosphorylated form of Peptide 1 and the dephosphorylated form of Peptide 2 on GI transit were determined in female CD mice. […]

[7] = 2.5 μg of peptide per loop, duodenal loops

For CC(C)C[C@@H]1NC(=O)[C@H](COP(=O)(O)O)NC(=O)[C@@H]2CSSC[C@@H]3NC(=O)[C@H](C)NC(=O)[C@@H]4CCCN4C(=O)[C@H](CC(N)=O)NC(=O)[C@H](CSSC[C@H](N)C(=O)N2)NC(=O)[C@H](CSSC[C@@H](C(=O)N[C@@H](Cc2ccc(O)cc2)C(=O)O)NC(=O)CNC(=O)[C@H]([C@@H](C)O)NC3=O)NC1=O [Peptide 1, CCpSLCCNPACTGCY] (H-CC[pS]LCCNPACTGCY-OH; disulfide 1-6, 2-10, 5-13 (inferred); N-terminus and C-terminus assumed), the “Dephospho (%)” value [1] was 22.1%, the remaining at 1.5 h, 0.1 mg/mL [2] was 77.8% and the “Dephospho (%)” value [3] was 100%. For the same molecule, the remaining at 1.5 h, 0.1 mg/mL [4] was 0%, the “Dephospho (%)” value [5] was 6.2% and the remaining at 1.5 h, 0.1 mg/mL ([5]; human prostate acid phosphatase (HuPrAP)) was 93.8%.

With “CCEFCCNPACTGCY [Peptide 4, GC-C agonist peptide with Glu in place of phosphoserine, used as comparator]” the “Rate of HCO3^− accumulation” value [6, 7] was 0.00008 Meq/min/cm, the “Rate of fluid accumulation” value [6, 7] was 2.0 µL/min/cm and the pH [6, 7] was 8.2. The “Induction of fluid accumulation / duodenal fluid secretion (FIG. 2)” value ([6]; ligated rat duodenal loops) was “promote duodenal fluid secretion” and the “ED50 (μg/kg), acceleration of upper GI transit” value (female CD-1 mice) was 2.06 µg/kg.
